Experimental data reported in a melting point compilation (Tetko et al.; mined from patent text by program, amines drawn as free bases though some values may be those of a salt).

| SMILES | melting point |
| --- | --- |
| CCc1ccc(-c2sc(NC(=O)c3ccc(S(=O)(=O)N4CCCC4C(=O)O)cc3)nc2-c2ccc(Cl)cc2)cc1 (stereo not drawn) | 289 to 292 °C |
| O=S(=O)(NCCCCCCCCn1ccnc1)c1ccc(Cl)cc1 | 54 to 56 °C |
| NC(=O)N(O)CC#Cc1cccc(C2=N[C@H](c3ccccc3)CS2)c1 | 155 to 157 °C |
| O=C(O)CN1CCN2C(=O)N(c3cc(Cl)cc(Cl)c3)C(=O)C2(Cc2ccc(Br)cc2)C1 (stereo not drawn) | 236 °C |
| CCn1nc2c(N)nc3c(c2c1CC(C)(C)O)CCCC3 | 202 to 204 °C |
| CCOC(=O)C1=C(C)NC(COC(=O)CCC(=O)O)=C(C(=O)OCC)C1c1ccccc1Cl (stereo not drawn) | 130 to 131 °C |
| O=C(O)c1cnn(CCCCN2CCN(C(c3ccccc3)c3ccccc3)CC2)c1 | 70 to 74 °C |
| O=C1CCCC2=C1C(c1cccc(Cl)c1)C1=C(CCCC1)N2 (stereo not drawn) | 249 to 250 °C |
| C[C@@H]1CN(c2ncc3ncnc(Nc4ccc(F)c(Cl)c4)c3n2)CC[C@@H]1N (relative stereo) | 161 to 164 °C |
| Cc1ccc(Cl)c2nc3cccc(C(=O)NCCCN(C)CCCNC(=O)c4cccc5nc6c(Cl)ccc(C)c6nc45)c3nc12 | 200 to 202 °C |
| CCSc1ccc2c(c1)NC(=O)C2 | 125 to 126 °C |
| CC1(C)CCC(C)(C)c2cc(C#Cc3ccc(CN)cc3)ccc21 | 84 to 88 °C |
| COc1cc(OC)c(N=C=O)c(OC)c1 | 67 to 70 °C |
| COc1cc(C=O)c([N+](=O)[O-])cc1OCCCl | 148 to 150 °C |
| CN(C(=O)c1cccc(C=O)c1)c1cccc(F)c1 | 115 to 119 °C |
| CCNc1c(OC)cc(Cc2cnc(N)nc2N)cc1OC | 186 to 188 °C |
| O=C1NC(=O)c2c1c(-c1ccccc1Cl)cc1c2c(Br)cn1CCCN1CCCC1 | 158 to 161 °C |
| CC(O)C#Cc1cc(F)c2ncc(C(=O)NCc3ccc(Cl)cc3)c(O)c2c1 (stereo not drawn) | 232 to 234 °C |
| COc1ccc(C(=O)N2CCc3cc(S(=O)(=O)N4CC(c5ccccc5)NC4=O)ccc32)cc1OC (stereo not drawn) | 178 to 179 °C |

| SMILES | melting point |
| --- | --- |
| NC1c2ccccc2CC2CCCCC21 (stereo not drawn) | 37 to 39 °C |
| Cc1cn(C(C)C(=O)N(C)C)nc1-c1ccco1 (stereo not drawn) | 93 to 95 °C |
| CC(=O)SC[C@H]1CCCCCC[C@H](C(=O)O)NC1=O (relative stereo) | 144 to 145 °C |
| CCCCCCCCC1CNc2cc(C(=O)OC)ccc21 (racemic) | 57 to 60 °C |
| NC(=O)NCCSCC(=O)O | 135 °C |
| Cc1ccc2c(c1)c1cc(Br)ccc1n2C(=O)OC(C)(C)C | 96 °C |
| Cc1nc2cccc(N)c2nc1C | 162 to 163 °C |
| CCOC(=O)CCC(=O)c1ccc(C2CCCCC2)cc1 | 54 to 55 °C |
| O=C1NC(=O)C(=Cc2ccc(SCCc3ccc(Cl)cc3)cc2)S1 | 215 to 225 °C |
| C=C(C(=O)c1ccc(-n2ccnc2)nc1)c1ccc(F)cc1F | 115 to 116 °C |
| FC(F)(F)c1ccc(-c2oncc2CCl)cc1 | 99 to 100 °C |
| N#CC1=C(C2CCNCC2)Nc2n[nH]cc2C1c1ccccc1Cl (stereo not drawn) | 221 °C |
| COc1ccc(C)cc1NC(=O)Nc1ccc(N2CCN(C(=O)Nc3ccc(OCC(O)CO)cc3Cl)CC2)cc1 (stereo not drawn) | 134 to 136 °C |
| O=S1(=O)c2cccc3cccc(c23)N1CCCCN1CCN(c2nsc3ccccc23)CC1 | 123 °C |
| CN(C)CCNC(=O)c1cc(Cl)c(N)cc1O | 163 to 165 °C |
| COc1cc2c(c3c1OC(C)(C)C3)C(c1cccc(NC(=O)CCCCl)c1)=NC(C)(C)C2 | 146 to 148 °C |
| Nc1nc(NCCO)c2ncn(C3C=CC(CO)C3)c2n1 (stereo not drawn) | 150 to 152 °C |
| O=c1[nH]c2cc(C(F)(F)F)ccc2n1C1CCNCC1 | 198 °C |
| C=CC(=O)NCc1ccc(CC(=O)OCC)cc1 | 93 to 95 °C |

| SMILES | melting point |
| --- | --- |
| CCc1n[nH]c(CC)c1CCOCCOc1ccc(OC)cc1Cl | 90 to 92 °C |
| Cc1c(Cl)cc(C(C)C)c2oc(SCCN3CCN(CC(=O)Nc4c(C(C)C)cccc4C(C)C)CC3)nc12 | 162 to 163 °C |
| CC(=NNC(=N)N)c1sc(-c2ccc(C3=CCCCC3)cc2)nc1C | 213 to 215 °C |
| CCN1C(=O)C(C)(C)C(=O)N(C)c2cc(CN(CCn3ccc4oc(C)cc4c3=O)Cc3cc(COC)nn3C)ccc21 | 113 to 115 °C |
| CCn1cc(C(=O)O)c(=O)c2cc(C=NOCC(=O)O)sc21 | 249 to 250 °C |
| CCOC(=O)C(C)(C)C(=O)C(Oc1ccc(Cl)cc1)n1cncn1 (stereo not drawn) | 88 to 89 °C |
| CC1(C)CC(=C(c2ccc(O)cc2)c2ccc(C#CCCO)cc2)CC(C)(C)C1 | 183 to 184 °C |
| Nc1cccc(C(=O)N2N=C(C(F)(F)F)CC2(O)c2cc(F)c(Cl)cc2F)c1 (stereo not drawn) | 123 to 124 °C |
| c1ccc(N2CCN(CCC3CCC(Nc4cccnc4)CC3)CC2)cc1 (stereo not drawn) | 159 to 160 °C |
| COc1cc(C(=O)N2Cc3ccc(C(=O)NCCC(c4ccccc4)c4ccccc4)n3Cc3ccccc32)ccc1-c1ccccc1C | 214 °C |
| NC(=O)c1cccc(-c2cccc3cc(Cc4cc(F)cc(C(F)(F)F)c4)sc23)c1 | 147 to 148 °C |
| CC(C)C[C@H](NC(=O)OC(C)(C)C)C(=O)NCC(=O)OCCCNc1cccc2c1C(=O)c1ccccc1C2=O | 86 °C |
| COC(=O)CC(=O)CC(O)/C=C/C1=C(c2ccc(F)cc2)C=C(c2ccc(F)cc2)CC12CCCC2 (stereo not drawn) | 96 to 99 °C |
| CSc1ccc(C(O)C#CC2(O)CCCC2)cc1 (stereo not drawn) | 118 to 120 °C |
| CC(C)c1cccc2c1C(=O)N(COC(=O)c1c(Cl)ccc(O)c1Cl)S2(=O)=O | 78 to 80 °C |
| Oc1ncnc(C(F)F)c1Cl | 148 to 150 °C |
| OCc1cccc(-c2nn(-c3ccc(F)cc3F)c3c2C2CCC3C2)c1 (stereo not drawn) | 113 to 115 °C |
| CCc1cc(-c2nnc3c4ccccc4c(OCc4ncnn4C)nn23)no1 | 240 to 242 °C |
| COC(=O)c1cnc(S)n1C1CCSc2ccccc21 (stereo not drawn) | 163 °C |

More lines, now with the values ahead:

| melting point | SMILES |
| --- | --- |
| 201 to 204 °C | COc1cc2c(=O)c(C)cn3c4cc(Br)ccc4c(c1)c23 |
| 99 to 100 °C | COC(=O)c1cccc(-c2cc(-c3ccccc3)on2)c1 |
| 235 to 236 °C | COc1cc2c(Nc3ccc(Oc4cccnc4)cc3)c(C#N)cnc2cc1F |
| 54 to 55 °C | CCC(=O)C(CCCCCCCOc1ccc(OCc2ccccc2)cc1)C(=O)CC |
| 124 to 125 °C | COc1ccc(CSc2nnc(-c3ccc4occc4c3)o2)cc1 |
| 243 to 244 °C | COc1cc(Nc2c(C#N)cnc3cc(-c4ccc5ccccc5c4)ccc23)c(Cl)cc1Cl |
| 227 to 228 °C | CS(=O)c1cccc(CNC(=O)c2nc3scc(COCc4ccc(C(=O)O)cc4)c3c(=O)[nH]2)c1 (stereo not drawn) |
| 73 to 75 °C | COC(=O)c1nc(N(C)Cc2ccccc2)ccc1Oc1nc(OC)cc(OC)n1 |
| 82.5 to 83 °C | CNC(=O)C1CC(=O)N(Cc2ccccc2)C1 (stereo not drawn) |
| 126 to 127 °C | O=c1oc(-c2cccc(OCc3ccccc3)c2)cc(O)c1SCCc1ccccc1 |
| > 300 °C | O=c1c2ccccc2[nH]n2cccc12 |
| 143 to 144 °C | CS(=O)(=O)Cc1cc(C(=O)CBr)ccc1OCc1ccccc1 |
| 73 to 76 °C | O=C(O)C(=CNc1ccc(OCc2ccccc2)c(OCc2ccccc2)c1)C(=O)O |
| 114 to 116 °C | O=c1[nH]c(Cc2ccccc2)no1 |
| 148 to 150 °C | CC(=O)Oc1cc(Cl)ccc1C1(OC(C)=O)C(=O)c2ccccc2C1=O |
| 160 to 161 °C | COc1ccc(CSc2nc3cnccc3[nH]2)cc1 |
| 221 °C | CCOC(=O)Cn1c(=O)[nH]c2ccc(C(=O)c3c(-c4ccccc4)c(OC)c4ccccn34)cc2c1=O |
| 154 to 155 °C | COc1ccc(Br)c(-c2nc(=S)n(Cc3ccccc3)[nH]2)c1 |
| 168 to 169 °C | Cc1oc(-c2ccccc2)nc1C(=O)COc1ccc(CC2SC(=O)NC2=O)cc1 (stereo not drawn) |
| 86 to 87 °C | Cc1cccc(-n2nc(C)cc2-c2ccnc(NCCc3ccccc3)c2)c1 |
| 160 to 170 °C | Nc1cc(Cl)c(Oc2ccc(Cl)cc2)cc1C(=O)O |

| melting point | SMILES |
| --- | --- |
| 82 to 83 °C | COC(=O)c1ccccc1Oc1ccc(Br)cc1[N+](=O)[O-] |
| 250 to 251 °C | CC(C)[C@@H]1NC(=O)OC1(c1ccccc1)c1ccccc1 |
| 123 to 126 °C | CCOC(=O)N1CCN(c2nn(-c3ccc(C(F)(F)F)cc3)c3ccccc23)CC1 |
| 157 to 158 °C | NC(=O)N(O)CC=Cc1ccc(-c2ccccc2)o1 |
| 97 to 98 °C | COc1cc(OCCOc2ccc3ccccc3c2)cc(OC)c1C(C)=O |
| 222 to 224 °C | c1ccc(COc2ccc(-c3ccc(OCc4ccccc4)cc3)cc2)cc1 |
| 72 to 73 °C | CN(CCOc1ccc(CON=C(CCC(=O)O)c2ccccc2)cc1)c1ncccn1 |
| 152 to 154 °C | COc1ccccc1N1CCN(CC(O)COc2ccc3cc(C(N)=O)oc3c2)CC1 (stereo not drawn) |
| 106 to 107 °C | O=C(O)c1ccccc1C(=O)c1c(-c2ccccc2)[nH]c2ccccc12 |
| 148 to 149 °C | O=C(O)c1ccc(CO/N=C/c2cc3ccccc3n2Cc2ccccc2)cc1Br |
| 152 °C | CCOc1cc(COc2cc(CCC(=O)O)n(-c3ccccc3)n2)cc(COc2ccc(Cl)cc2Cl)c1 |
| 191 °C | CS(=O)(=O)c1c(Cl)c2cccnc2n(Cc2ccccc2)c1=O |
| 157 to 158 °C | O=C(NC1CCN(CCCOc2ccc3ccc(=O)oc3c2)CC1)c1ccccc1 |
| 199 to 201 °C | Cn1c2c(c3cccc(OCc4ccccc4)c31)C(=O)NCC2 |
| 185 to 187 °C | CC(=O)Oc1ccc(C(=O)O)cc1-c1ccccc1 |
| 150 to 151 °C | O=c1[nH]c(=O)n(Cc2ccc(OCc3noc(-c4ccccc4)n3)cc2)o1 |
| 165 to 167 °C | CCOC(=O)C=Cc1c(C)nc(SCc2ccc(OC)cc2)n1C |
| 148 to 151 °C | CC(C)[Si](Oc1ccc([C@H](O)[C@H](C)N2CCC(O)(c3ccccc3)CC2)cc1)(C(C)C)C(C)C (relative stereo) |
| 215 to 217 °C | Cc1ccccc1CNc1nc(Cl)nc2ccccc12 |
| 113 °C | CCCCOc1nc(-c2ccco2)c2ncn(Cc3ccc(OC)cc3)c2n1 |
